Test results: patent US20050239656A1, “Pyridine compounds or salts thereof and herbicides containing the same” (priority 2002, published 2005)

Assays:
barnyardgrass = assay: Test Example 3: paddy pot test, application under submerged conditions; type: in vivo, Echinochloa crus-galli L.; details: submerged application at 0.5 leaf stage, visually observed 14 days after application, 0 = non-treated, 100 = complete kill
Text: (§1) Paddy field soil was put into a 1/1,000,000 ha pot, and seed of barnyardgrass and japanese bulrush were sown and slightly covered with soil. Then, the pot was left to stand still in a greenhouse in a state where the depth of flooding water was from 0.5 to 1 cm, and one day or two days later, tubers of japanese ribbon wapato were planted. Thereafter, the depth of flooding water was maintained at a level of from 3 to 4 cm, and when barnyardgrass and japanese bulrush reached a 0.5 leaf stage and japanese ribbon wapato reached a primary leaf stage, an aqueous diluted solution of a wettable powder or emulsifiable concentrate having the compound of the present invention formulated in accordance with a usual formulation method, was uniformly applied under submerged conditions by a pipette so that the dose of the active ingredient would be at a predetermined level. On the 14 days after the application of the herbicide, the growth of barnyard grass, japanese burlrush and japanese ribbon wapato was visually observed and on the 21st day after the application of the herbicide, the growth of rice was visually observed, and the herbicidal effects were evaluated by the growth-controlling degrees (%) ranging from 0 (equivalent to the non-treated plot) to 100 (complete kill), whereby the results shown in Table 5 were obtained.

rice (var. Nihonbare) = assay: Test Example 3: paddy pot test, transplanted rice; type: in vivo, Oryza sativa L.; details: applied 4th day after transplantation, visually observed 21st day after application, 0 = non-treated, 100 = complete kill
Text: as §1, with “On the other hand, paddy field soil was put into a 1/1,000,000 ha pot and puddled and leveled, and the depth of flooding water was from 3 to 4 cm. Next day, rice (var. Nihonbare) of 2 leaf stage was transplanted in a depth of 3 cm. On the 4th day after the transplantation, the compound of the present invention was applied in the same manner as described above. On the 14 days” for “On the 14 days”

japanese bulrush = assay: Test Example 3: paddy pot test, application under submerged conditions; type: in vivo, Scirpus juncoides; details: submerged application at 0.5 leaf stage, visually observed 14 days after application, 0 = non-treated, 100 = complete kill
Text: as §1

japanese ribbon wapato = assay: as above; type: in vivo, Sagittaria pygniaea; details: submerged application at primary leaf stage, visually observed 14 days after application, 0 = non-treated, 100 = complete kill
Text: as §1

Row | SMILES | Growth controlling degree (%) Barnyardgrass (barnyardgrass; active ingredient 250 g/ha) [%] | Growth controlling degree (%) Rice (rice (var. Nihonbare); active ingredient 250 g/ha) [%] | Growth controlling degree (%) Japanese bulrush (japanese bulrush; active ingredient 250 g/ha) [%] | Growth controlling degree (%) Japanese ribbon wapato (japanese ribbon wapato; active ingredient 250 g/ha) [%] | further results
1 | CC(C)C(c1cnccc1C(F)(F)F)N(C)C(=O)C=Cc1cccc(Br)c1 (stereo not drawn) [I-179] | – | – | – | – | Growth controlling degree (%) Barnyardgrass (barnyardgrass; active ingredient 500 g/ha): 90%; Growth controlling degree (%) Rice (rice (var. Nihonbare); active ingredient 500 g/ha): 10%; Growth controlling degree (%) Japanese bulrush (japanese bulrush; active ingredient 500 g/ha): 90%; Growth controlling degree (%) Japanese ribbon wapato (japanese ribbon wapato; active ingredient 500 g/ha): 30%
2 | CC(C)C(c1cnccc1C(F)(F)F)N(C)C(=O)C1CCCC1 (stereo not drawn) [I-212] | 100 | 30 | 98 | 80 | –
3 | CC(C)C(c1cnccc1C(F)(F)F)N(C)C(=O)C=Cc1ccc(Cl)cc1 (stereo not drawn) [I-171] | 60 | 0 | 98 | 0 | –
4 | CCN(C(=O)Cc1ccccc1F)C(c1cnccc1C(F)(F)F)C(C)C (stereo not drawn) [I-78] | 100 | 20 | 70 | 40 | –
5 | CC(C)C(c1cnccc1C(F)(F)F)N(C)C(=O)COc1cccc(Cl)c1 (stereo not drawn) [I-247] | 100 | 0 | 95 | 0 | –
6 | CC(C)C(c1cnccc1C(F)(F)F)N(C)C(=O)COc1ccc([N+](=O)[O-])cc1 (stereo not drawn) [I-237] | 95 | 0 | 95 | 40 | –
7 | CC(C)C(c1cnccc1C(F)(F)F)N(C)S(=O)(=O)c1ccc(C(F)(F)F)cc1 (stereo not drawn) [I-146] | 98 | 20 | 80 | 0 | –
8 | CC(C)C(c1cnccc1C(F)(F)F)N(C)C(=O)Cc1cccc2ccccc12 (stereo not drawn) [I-56] | – | – | – | – | Growth controlling degree (%) Barnyardgrass (barnyardgrass; active ingredient 500 g/ha): 95%; Growth controlling degree (%) Rice (rice (var. Nihonbare); active ingredient 500 g/ha): 20%; Growth controlling degree (%) Japanese bulrush (japanese bulrush; active ingredient 500 g/ha): 70%; Growth controlling degree (%) Japanese ribbon wapato (japanese ribbon wapato; active ingredient 500 g/ha): 90%
9 | CC(C)C(c1cnccc1Cl)N(C)C(=O)Cc1ccc(Cl)c(Cl)c1 (stereo not drawn) [I-80] | 98 | 20 | 90 | 20 | –
10 | CC(=CC(=O)N(C)C(c1cnccc1C(F)(F)F)C(C)C)c1ccccc1 (stereo not drawn) [I-174] | 10 | 0 | 95 | 0 | –
11 | Cc1ccccc1CC(=O)N(C)C(c1cnccc1Cl)C(C)C (stereo not drawn) [I-83] | 98 | 10 | 98 | 20 | –
12 | CC(C)C(c1cnccc1C(F)(F)F)N(C)C(=O)COc1c(F)c(F)c(F)c(F)c1F (stereo not drawn) [I-252] | 95 | 0 | 98 | 0 | –
13 | CC(C)C(c1cnccc1C(F)(F)F)N(C)C(=O)Cc1cc(Cl)cc(Cl)c1 (stereo not drawn) [I-91] | 90 | 0 | 20 | 20 | –
14 | CC(C)C(c1cccnc1)N(C)C(=O)Cc1ccccc1 (stereo not drawn) [I-93] | – | – | – | – | Growth controlling degree (%) Barnyardgrass (barnyardgrass; active ingredient 500 g/ha): 60%; Growth controlling degree (%) Rice (rice (var. Nihonbare); active ingredient 500 g/ha): 0%; Growth controlling degree (%) Japanese bulrush (japanese bulrush; active ingredient 500 g/ha): 95%; Growth controlling degree (%) Japanese ribbon wapato (japanese ribbon wapato; active ingredient 500 g/ha): 30%
15 | COc1ccccc1CC(=O)N(C)C(c1cnccc1C(F)(F)F)C(C)C (stereo not drawn) [I-35] | 100 | 0 | 95 | 70 | –
16 | CCN(C(=O)Cc1cc(F)ccc1F)C(c1cnccc1C(F)(F)F)C(C)C (stereo not drawn) [I-98] | 100 | 10 | 80 | 40 | –
17 | CC(C)C(c1cnccc1C(F)(F)F)N(C)C(=O)C=C1CCCC1 (stereo not drawn) [I-176] | 98 | 0 | 98 | 0 | –
18 | CC(C)C(c1cnccc1Cl)N(C)C(=O)Cc1ccc(F)cc1F (stereo not drawn) [I-71] | – | – | – | – | Growth controlling degree (%) Barnyardgrass (barnyardgrass; active ingredient 125 g/ha): 90%; Growth controlling degree (%) Rice (rice (var. Nihonbare); active ingredient 125 g/ha): 0%; Growth controlling degree (%) Japanese bulrush (japanese bulrush; active ingredient 125 g/ha): 90%; Growth controlling degree (%) Japanese ribbon wapato (japanese ribbon wapato; active ingredient 125 g/ha): 40%
19 | CC(C)C(NC(=O)c1ccccc1)c1cnccc1C(F)(F)F (racemic) [I-115] | – | – | – | – | Growth controlling degree (%) Barnyardgrass (barnyardgrass; active ingredient 500 g/ha): 70%; Growth controlling degree (%) Rice (rice (var. Nihonbare); active ingredient 500 g/ha): 20%; Growth controlling degree (%) Japanese bulrush (japanese bulrush; active ingredient 500 g/ha): 40%; Growth controlling degree (%) Japanese ribbon wapato (japanese ribbon wapato; active ingredient 500 g/ha): 20%
20 | CCN(C(=O)Cc1cccc(F)c1F)C(c1cnccc1C(F)(F)F)C(C)C (stereo not drawn) [I-77] | 98 | 0 | 95 | 40 | –
21 | Cc1cccc(OCC(=O)N(C)C(c2cnccc2C(F)(F)F)C(C)C)c1 (stereo not drawn) [I-238] | 95 | 20 | 95 | 60 | –
22 | CC(C)C(c1cnccc1C(F)(F)F)N(C)C(=O)COc1ccc(Cl)cc1 (stereo not drawn) [I-248] | 98 | 0 | 98 | 20 | –
23 | CC(C)C(c1cnccc1C(F)(F)F)N(C)C(=O)C=Cc1cccs1 (stereo not drawn) [I-173] | 90 | 0 | 95 | 30 | –
24 | CC(C)C(NC(=O)Cc1ccc(C(F)(F)F)cc1)c1cnccc1C(F)(F)F (stereo not drawn) [I-7] | – | – | – | – | Growth controlling degree (%) Barnyardgrass (barnyardgrass; active ingredient 500 g/ha): 95%; Growth controlling degree (%) Rice (rice (var. Nihonbare); active ingredient 500 g/ha): 20%; Growth controlling degree (%) Japanese bulrush (japanese bulrush; active ingredient 500 g/ha): 70%; Growth controlling degree (%) Japanese ribbon wapato (japanese ribbon wapato; active ingredient 500 g/ha): 0%
